Results reported in paper PMC7613998, “Development of selective inhibitors of phosphatidylinositol 3-kinase C2α” (Nature Chemical Biology, 2022).

What was measured:
Experiment in all cases: biochemical
[1] = target: CDK3/cyclin E1 (Homo sapiens, UniProt Q00526); parameters: SelectScreen LanthaScreen kinase binding assay, per cent tracer displacement, mean of two points; conditions: tracer displacement
[2] = target: TNIK (Homo sapiens, UniProt Q9UKE5); parameters: SelectScreen LanthaScreen kinase binding assay, per cent tracer displacement, mean of two points; conditions: tracer displacement
[3] = target: CDK9/cyclin K (Homo sapiens, UniProt P50750); parameters: SelectScreen LanthaScreen kinase binding assay, per cent tracer displacement, mean of two points; conditions: tracer displacement
[4] = target: DYRK1B (Homo sapiens, UniProt Q9Y463); parameters: SelectScreen Z'-LYTE purified kinase panel, per cent inhibition, mean of two points; conditions: (μM)=Km app
[5] = target: AURKB (Aurora B) (Homo sapiens, UniProt Q96GD4); parameters: SelectScreen Z'-LYTE purified kinase panel, per cent inhibition, mean of two points; conditions: (μM)=Km app
[6] = target: T1, LYN A (Homo sapiens, UniProt P07948); parameters: SelectScreen Z'-LYTE purified kinase panel, per cent inhibition, mean of two points; conditions: (μM)=Km app
T1 construct: isoform A

[7] = target: MAP3K8 (COT) (Homo sapiens, UniProt P41279); parameters: SelectScreen Z'-LYTE purified kinase panel, per cent inhibition, mean of two points; conditions: (μM)=100
[8] = target: MAPK11 (p38 beta) (Homo sapiens, UniProt Q15759); parameters: SelectScreen Z'-LYTE purified kinase panel, per cent inhibition, mean of two points; conditions: (μM)=Km app
[9] = target: EPHA2 (Homo sapiens, UniProt P29317); parameters: SelectScreen Z'-LYTE purified kinase panel, per cent inhibition, mean of two points; conditions: (μM)=Km app
[10] = target: T2, ACVR1B (ALK4) (Homo sapiens, UniProt P36896); parameters: SelectScreen Z'-LYTE purified kinase panel, per cent inhibition, mean of two points; conditions: (μM)=Km app
T2 sequence (P36896 1-505): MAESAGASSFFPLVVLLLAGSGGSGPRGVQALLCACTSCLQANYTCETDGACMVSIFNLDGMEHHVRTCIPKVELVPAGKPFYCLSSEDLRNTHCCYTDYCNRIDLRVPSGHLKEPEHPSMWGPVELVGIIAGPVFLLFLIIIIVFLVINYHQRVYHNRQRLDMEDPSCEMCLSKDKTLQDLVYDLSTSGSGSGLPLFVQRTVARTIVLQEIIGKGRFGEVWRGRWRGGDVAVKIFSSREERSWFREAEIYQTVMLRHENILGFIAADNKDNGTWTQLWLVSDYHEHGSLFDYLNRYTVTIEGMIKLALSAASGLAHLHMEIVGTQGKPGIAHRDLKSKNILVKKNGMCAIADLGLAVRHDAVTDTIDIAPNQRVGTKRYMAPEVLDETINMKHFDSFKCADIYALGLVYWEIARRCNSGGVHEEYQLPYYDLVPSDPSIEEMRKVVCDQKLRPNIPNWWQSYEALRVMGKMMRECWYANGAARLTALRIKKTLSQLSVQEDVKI

[11] = target: CSNK1D (CK1 delta) (Homo sapiens, UniProt P48730); parameters: SelectScreen Z'-LYTE purified kinase panel, per cent inhibition, mean of two points; conditions: (μM)=Km app
[12] = target: T3, ZAP70 (Homo sapiens, UniProt P43403); parameters: SelectScreen Z'-LYTE purified kinase panel, per cent inhibition, mean of two points; conditions: (μM)=Km app
T3 sequence (P43403 1-619): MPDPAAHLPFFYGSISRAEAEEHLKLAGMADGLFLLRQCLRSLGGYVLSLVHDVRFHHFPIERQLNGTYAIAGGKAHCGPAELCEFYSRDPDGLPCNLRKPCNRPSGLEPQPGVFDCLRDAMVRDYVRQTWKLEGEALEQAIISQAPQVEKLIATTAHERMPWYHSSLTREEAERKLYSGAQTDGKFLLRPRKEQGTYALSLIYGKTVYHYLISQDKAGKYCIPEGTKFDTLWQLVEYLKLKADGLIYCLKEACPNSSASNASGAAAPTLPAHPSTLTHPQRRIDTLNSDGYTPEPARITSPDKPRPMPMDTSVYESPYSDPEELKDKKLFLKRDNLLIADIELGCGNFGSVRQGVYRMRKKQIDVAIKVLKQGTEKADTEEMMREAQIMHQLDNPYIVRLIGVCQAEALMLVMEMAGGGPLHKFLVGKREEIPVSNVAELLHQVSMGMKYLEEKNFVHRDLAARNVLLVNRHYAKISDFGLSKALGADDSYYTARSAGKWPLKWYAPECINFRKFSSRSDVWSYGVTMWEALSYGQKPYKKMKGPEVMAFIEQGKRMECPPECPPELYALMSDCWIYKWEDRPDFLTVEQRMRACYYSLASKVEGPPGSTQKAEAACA

[13] = target: TEK (Tie2) (Homo sapiens, UniProt Q02763); parameters: SelectScreen Z'-LYTE purified kinase panel, per cent inhibition, mean of two points; conditions: (μM)=Km app
[14] = target: ROCK2 (Homo sapiens, UniProt O75116); parameters: SelectScreen Z'-LYTE purified kinase panel, per cent inhibition, mean of two points; conditions: (μM)=Km app
ROCK2, sequence (O75116 whole entry): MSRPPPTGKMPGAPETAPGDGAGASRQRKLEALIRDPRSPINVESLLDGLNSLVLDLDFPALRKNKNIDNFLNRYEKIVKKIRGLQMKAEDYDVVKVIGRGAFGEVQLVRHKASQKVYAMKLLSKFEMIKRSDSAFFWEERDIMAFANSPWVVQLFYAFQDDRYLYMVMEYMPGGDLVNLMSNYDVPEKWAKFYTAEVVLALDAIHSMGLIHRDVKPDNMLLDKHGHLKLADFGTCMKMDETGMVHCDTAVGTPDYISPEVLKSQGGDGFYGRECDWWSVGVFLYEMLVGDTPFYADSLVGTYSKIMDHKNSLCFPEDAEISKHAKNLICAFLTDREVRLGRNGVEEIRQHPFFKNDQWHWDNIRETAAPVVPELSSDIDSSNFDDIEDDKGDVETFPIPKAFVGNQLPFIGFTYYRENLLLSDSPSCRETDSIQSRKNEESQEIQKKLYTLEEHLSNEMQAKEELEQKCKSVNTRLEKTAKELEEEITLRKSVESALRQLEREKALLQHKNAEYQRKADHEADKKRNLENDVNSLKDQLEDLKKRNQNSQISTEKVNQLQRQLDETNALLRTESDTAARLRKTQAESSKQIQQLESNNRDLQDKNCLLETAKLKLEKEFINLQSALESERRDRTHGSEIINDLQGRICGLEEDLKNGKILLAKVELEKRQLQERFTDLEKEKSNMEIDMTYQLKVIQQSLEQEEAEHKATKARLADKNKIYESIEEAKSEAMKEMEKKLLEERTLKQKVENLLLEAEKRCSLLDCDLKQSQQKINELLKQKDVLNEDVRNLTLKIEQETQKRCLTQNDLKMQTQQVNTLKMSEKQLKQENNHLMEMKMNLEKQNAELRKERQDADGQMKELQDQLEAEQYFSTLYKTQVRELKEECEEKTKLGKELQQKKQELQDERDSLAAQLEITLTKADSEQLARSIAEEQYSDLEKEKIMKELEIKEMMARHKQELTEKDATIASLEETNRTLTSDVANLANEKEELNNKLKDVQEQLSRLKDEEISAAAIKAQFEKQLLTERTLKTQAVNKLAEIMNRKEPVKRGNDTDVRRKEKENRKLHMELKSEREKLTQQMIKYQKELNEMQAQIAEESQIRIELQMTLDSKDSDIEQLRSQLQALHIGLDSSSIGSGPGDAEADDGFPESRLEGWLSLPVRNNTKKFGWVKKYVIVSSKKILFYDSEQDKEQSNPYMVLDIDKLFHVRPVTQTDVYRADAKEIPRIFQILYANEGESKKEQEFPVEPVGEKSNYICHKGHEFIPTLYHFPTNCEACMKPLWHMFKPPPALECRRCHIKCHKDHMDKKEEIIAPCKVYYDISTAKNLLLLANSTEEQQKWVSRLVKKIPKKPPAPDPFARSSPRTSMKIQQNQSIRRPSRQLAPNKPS

MAPK11 (p38 beta), sequence (Q15759 whole entry): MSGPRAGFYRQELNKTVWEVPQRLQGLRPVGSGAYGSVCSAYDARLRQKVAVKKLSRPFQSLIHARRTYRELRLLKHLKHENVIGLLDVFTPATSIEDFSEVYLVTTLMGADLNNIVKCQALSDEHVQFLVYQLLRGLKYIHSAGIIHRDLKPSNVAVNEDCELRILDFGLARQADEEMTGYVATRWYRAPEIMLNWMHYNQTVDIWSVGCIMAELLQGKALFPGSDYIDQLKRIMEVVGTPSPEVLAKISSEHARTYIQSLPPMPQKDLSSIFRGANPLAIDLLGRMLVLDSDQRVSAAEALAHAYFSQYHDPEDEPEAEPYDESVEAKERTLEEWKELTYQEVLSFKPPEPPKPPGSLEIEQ
TNIK, sequence (Q9UKE5 whole entry): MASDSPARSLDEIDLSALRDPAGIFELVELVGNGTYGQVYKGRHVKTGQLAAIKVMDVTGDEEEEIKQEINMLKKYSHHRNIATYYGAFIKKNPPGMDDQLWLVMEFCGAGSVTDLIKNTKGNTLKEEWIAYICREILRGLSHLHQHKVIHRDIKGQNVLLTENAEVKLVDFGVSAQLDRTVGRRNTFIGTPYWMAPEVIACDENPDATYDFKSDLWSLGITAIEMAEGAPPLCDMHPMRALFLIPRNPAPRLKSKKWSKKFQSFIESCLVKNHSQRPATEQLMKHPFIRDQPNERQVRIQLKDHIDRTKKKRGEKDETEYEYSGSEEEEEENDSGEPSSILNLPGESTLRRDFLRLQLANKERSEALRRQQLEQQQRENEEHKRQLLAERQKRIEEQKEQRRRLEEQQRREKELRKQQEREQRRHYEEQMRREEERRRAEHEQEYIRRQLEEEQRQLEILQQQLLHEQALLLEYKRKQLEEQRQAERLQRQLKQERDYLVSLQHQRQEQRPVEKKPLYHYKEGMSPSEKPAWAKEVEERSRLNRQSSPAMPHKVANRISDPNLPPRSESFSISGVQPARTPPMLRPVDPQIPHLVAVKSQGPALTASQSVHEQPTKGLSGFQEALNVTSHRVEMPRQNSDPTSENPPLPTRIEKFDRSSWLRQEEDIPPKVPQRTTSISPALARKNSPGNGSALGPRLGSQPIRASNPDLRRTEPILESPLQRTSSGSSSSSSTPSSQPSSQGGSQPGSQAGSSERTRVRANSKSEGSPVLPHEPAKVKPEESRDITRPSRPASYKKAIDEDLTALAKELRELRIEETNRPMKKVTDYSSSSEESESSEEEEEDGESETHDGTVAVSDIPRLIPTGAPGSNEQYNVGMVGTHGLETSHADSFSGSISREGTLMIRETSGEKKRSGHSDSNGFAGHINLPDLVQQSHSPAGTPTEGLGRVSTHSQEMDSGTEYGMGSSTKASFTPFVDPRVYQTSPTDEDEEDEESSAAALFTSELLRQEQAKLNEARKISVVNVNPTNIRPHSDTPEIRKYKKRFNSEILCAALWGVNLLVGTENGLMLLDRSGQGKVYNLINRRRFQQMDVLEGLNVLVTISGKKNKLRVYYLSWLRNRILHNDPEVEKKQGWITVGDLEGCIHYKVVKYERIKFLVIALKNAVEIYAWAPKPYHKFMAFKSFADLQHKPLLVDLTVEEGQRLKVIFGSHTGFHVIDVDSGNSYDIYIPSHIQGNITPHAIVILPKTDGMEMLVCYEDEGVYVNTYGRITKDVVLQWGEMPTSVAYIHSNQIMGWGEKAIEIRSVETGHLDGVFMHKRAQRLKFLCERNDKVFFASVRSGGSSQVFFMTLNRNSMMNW
CSNK1D (CK1 delta), sequence (P48730 whole entry): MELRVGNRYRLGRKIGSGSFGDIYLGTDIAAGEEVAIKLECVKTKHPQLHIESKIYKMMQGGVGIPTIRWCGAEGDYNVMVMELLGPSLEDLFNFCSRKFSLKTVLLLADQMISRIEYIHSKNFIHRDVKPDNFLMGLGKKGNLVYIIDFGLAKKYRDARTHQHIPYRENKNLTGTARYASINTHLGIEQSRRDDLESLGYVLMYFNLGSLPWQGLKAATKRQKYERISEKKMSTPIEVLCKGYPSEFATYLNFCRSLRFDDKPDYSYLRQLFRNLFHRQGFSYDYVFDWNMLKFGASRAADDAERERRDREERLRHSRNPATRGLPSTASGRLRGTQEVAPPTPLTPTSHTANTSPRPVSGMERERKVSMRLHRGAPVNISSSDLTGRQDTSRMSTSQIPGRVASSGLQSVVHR
AURKB (Aurora B), sequence (Q96GD4 whole entry): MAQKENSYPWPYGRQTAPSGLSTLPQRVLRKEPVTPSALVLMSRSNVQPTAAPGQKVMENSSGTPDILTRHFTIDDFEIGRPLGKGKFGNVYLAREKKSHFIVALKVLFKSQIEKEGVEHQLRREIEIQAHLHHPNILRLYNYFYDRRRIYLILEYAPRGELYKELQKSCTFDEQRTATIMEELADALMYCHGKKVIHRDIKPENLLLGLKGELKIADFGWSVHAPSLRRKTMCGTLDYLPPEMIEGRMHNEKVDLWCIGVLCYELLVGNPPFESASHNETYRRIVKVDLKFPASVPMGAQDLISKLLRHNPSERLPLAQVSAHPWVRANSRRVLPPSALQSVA
T1 sequence (P07948 whole entry, canonical isoform): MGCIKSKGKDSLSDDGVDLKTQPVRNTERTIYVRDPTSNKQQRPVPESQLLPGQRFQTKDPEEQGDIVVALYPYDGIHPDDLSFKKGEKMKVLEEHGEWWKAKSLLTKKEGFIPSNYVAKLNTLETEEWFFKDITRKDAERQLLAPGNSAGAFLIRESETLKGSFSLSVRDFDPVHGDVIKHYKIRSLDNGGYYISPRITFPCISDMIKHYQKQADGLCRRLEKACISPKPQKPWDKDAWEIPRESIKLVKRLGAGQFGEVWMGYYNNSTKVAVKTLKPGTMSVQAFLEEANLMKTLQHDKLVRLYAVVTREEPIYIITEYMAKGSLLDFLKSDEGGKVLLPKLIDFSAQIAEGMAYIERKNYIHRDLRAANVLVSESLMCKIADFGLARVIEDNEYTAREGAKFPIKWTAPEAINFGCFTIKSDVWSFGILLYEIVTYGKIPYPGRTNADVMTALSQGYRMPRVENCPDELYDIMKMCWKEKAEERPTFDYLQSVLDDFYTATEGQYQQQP
MAP3K8 (COT), sequence (P41279 whole entry): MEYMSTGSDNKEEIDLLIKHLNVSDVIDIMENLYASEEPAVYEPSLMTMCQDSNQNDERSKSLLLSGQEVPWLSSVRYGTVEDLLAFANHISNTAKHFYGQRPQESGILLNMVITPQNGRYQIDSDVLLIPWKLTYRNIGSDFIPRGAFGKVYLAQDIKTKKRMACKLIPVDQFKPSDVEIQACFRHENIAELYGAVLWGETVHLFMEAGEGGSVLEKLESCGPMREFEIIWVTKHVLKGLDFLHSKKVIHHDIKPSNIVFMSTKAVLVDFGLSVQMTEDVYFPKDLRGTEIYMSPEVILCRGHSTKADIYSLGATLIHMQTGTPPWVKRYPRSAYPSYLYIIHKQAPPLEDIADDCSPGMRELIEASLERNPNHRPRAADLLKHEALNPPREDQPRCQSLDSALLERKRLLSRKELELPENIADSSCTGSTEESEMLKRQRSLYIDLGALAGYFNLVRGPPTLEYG

Question: Which inhibition at 1 µM [1] does the source give for CS(=O)(=O)Nc1cccc(-c2csc(NC(=O)CSc3nc4nccnc4c(=O)n3CCc3ccccc3)n2)c1 [compound 3, PITCOIN3] here?
Answer: 13.1%

Question: What about the inhibition at 3 µM [1] of the same compound?
Answer: 8.71%

Question: What about the inhibition at 10 µM [1] of the same compound?
Answer: -18.8%

Question: And the inhibition at 1 µM [2]?
Answer: 4.57%

Question: And the inhibition at 3 µM [2]?
Answer: 2.17%

Question: What about the inhibition at 10 µM [2] of the same compound?
Answer: -4.46%

Question: What about the inhibition at 1 µM [3] of the same compound?
Answer: 0.179%

Question: And the inhibition at 3 µM [3]?
Answer: -3.08%

Question: And the inhibition at 10 µM [3]?
Answer: -7.54%

Question: What about the inhibition at 1 µM [4] of the same compound?
Answer: -3%

Question: And the inhibition at 3 µM [4]?
Answer: -3.02%

Question: And the inhibition at 10 µM [4]?
Answer: -2.65%

Question: What about the inhibition at 1 µM [5] of the same compound?
Answer: -3.65%

Question: And the inhibition at 3 µM [5]?
Answer: 2.11%

Question: What about the inhibition at 10 µM [5] of the same compound?
Answer: 6.27%

Question: And the inhibition at 1 µM [6]?
Answer: 1.87%

Question: And the inhibition at 3 µM [6]?
Answer: 2.86%

Question: And the inhibition at 10 µM [6]?
Answer: 1.59%

Question: And the inhibition at 1 µM [7]?
Answer: 2.37%

Question: And the inhibition at 3 µM [7]?
Answer: 11.4%

Question: What about the inhibition at 10 µM [7] of the same compound?
Answer: 4.89%

Question: And the inhibition at 1 µM [8]?
Answer: 10.5%

Question: And the inhibition at 3 µM [8]?
Answer: 8.66%

Question: What about the inhibition at 10 µM [8] of the same compound?
Answer: 4.91%

Question: And the inhibition at 1 µM [9]?
Answer: 13.8%

Question: What about the inhibition at 3 µM [9] of the same compound?
Answer: 8.03%

Question: And the inhibition at 10 µM [9]?
Answer: 8.38%

Question: And the inhibition at 1 µM [10]?
Answer: 5.04%

Question: And the inhibition at 3 µM [10]?
Answer: 9.13%

Question: What about the inhibition at 10 µM [10] of the same compound?
Answer: 4.09%

Question: What about the inhibition at 1 µM [11] of the same compound?
Answer: 5.88%

Question: And the inhibition at 3 µM [11]?
Answer: 7.07%

Question: What about the inhibition at 10 µM [11] of the same compound?
Answer: 7.02%

Question: What about the inhibition at 1 µM [12] of the same compound?
Answer: 17.4%

Question: What about the inhibition at 3 µM [12] of the same compound?
Answer: 12.6%

Question: What about the inhibition at 10 µM [12] of the same compound?
Answer: 14.5%

Question: And the inhibition at 1 µM [13]?
Answer: 8.6%

Question: And the inhibition at 3 µM [13]?
Answer: 10.7%

Question: And the inhibition at 10 µM [13]?
Answer: 5.64%

Question: What about the inhibition at 1 µM [14] of the same compound?
Answer: 7.17%

Question: What about the inhibition at 3 µM [14] of the same compound?
Answer: -3.73%

Question: And the inhibition at 10 µM [14]?
Answer: 2.1%

Question: With O=C(CSc1nc2nccnc2c(=O)n1CCc1ccccc1)Nc1nccs1 [compound 1, PITCOIN1] as the compound, how does the inhibition at 1 µM [1] read?
Answer: -0.974%

Question: What about the inhibition at 3 µM [1] of the same compound?
Answer: -9.41%

Question: What about the inhibition at 10 µM [1] of the same compound?
Answer: 1.77%

Question: And the inhibition at 1 µM [2]?
Answer: -4.88%

Question: And the inhibition at 3 µM [2]?
Answer: -3.23%

Question: And the inhibition at 10 µM [2]?
Answer: -2.09%

Question: What about the inhibition at 1 µM [3] of the same compound?
Answer: -2.66%

Question: And the inhibition at 3 µM [3]?
Answer: -5.46%

Question: And the inhibition at 10 µM [3]?
Answer: -1.18%

Question: What about the inhibition at 1 µM [4] of the same compound?
Answer: -3.1%

Question: What about the inhibition at 3 µM [4] of the same compound?
Answer: -1.26%

Question: What about the inhibition at 10 µM [4] of the same compound?
Answer: -0.107%

Question: What about the inhibition at 1 µM [5] of the same compound?
Answer: -15.7%

Question: And the inhibition at 3 µM [5]?
Answer: -5.68%

Question: What about the inhibition at 10 µM [5] of the same compound?
Answer: -10.8%

Question: What about the inhibition at 1 µM [6] of the same compound?
Answer: 2.62%

Question: And the inhibition at 3 µM [6]?
Answer: 1.7%

Question: And the inhibition at 10 µM [6]?
Answer: 2.95%

Question: What about the inhibition at 1 µM [7] of the same compound?
Answer: 1.68%

Question: What about the inhibition at 3 µM [7] of the same compound?
Answer: -2.27%

Question: And the inhibition at 10 µM [7]?
Answer: 4.32%

Question: What about the inhibition at 1 µM [8] of the same compound?
Answer: 9.02%

Question: What about the inhibition at 3 µM [8] of the same compound?
Answer: 8.06%

Question: What about the inhibition at 10 µM [8] of the same compound?
Answer: 7.22%

Question: And the inhibition at 1 µM [9]?
Answer: 6.54%

Question: And the inhibition at 3 µM [9]?
Answer: 8.4%

Question: And the inhibition at 10 µM [9]?
Answer: 9.38%

Question: What about the inhibition at 1 µM [10] of the same compound?
Answer: 3.41%

Question: And the inhibition at 3 µM [10]?
Answer: 5.04%

Question: And the inhibition at 10 µM [10]?
Answer: 3.29%

Question: What about the inhibition at 1 µM [11] of the same compound?
Answer: 4.82%

Question: What about the inhibition at 3 µM [11] of the same compound?
Answer: 3.36%

Question: And the inhibition at 10 µM [11]?
Answer: 10%

Question: What about the inhibition at 1 µM [12] of the same compound?
Answer: 13.7%

Question: And the inhibition at 3 µM [12]?
Answer: 11.6%

Question: What about the inhibition at 10 µM [12] of the same compound?
Answer: 9.43%

Question: What about the inhibition at 1 µM [13] of the same compound?
Answer: 7.5%

Question: What about the inhibition at 3 µM [13] of the same compound?
Answer: 5.07%

Question: What about the inhibition at 10 µM [13] of the same compound?
Answer: 3.39%

Question: What about the inhibition at 1 µM [14] of the same compound?
Answer: 2.33%

Question: And the inhibition at 3 µM [14]?
Answer: 1.58%

Question: What about the inhibition at 10 µM [14] of the same compound?
Answer: 5.34%
